{"source": "patent US20160184335A1", "about": "“ANTITUMOR AGENT” (KAKUI, CO., LTD., priority 2012, published 2016)", "key": {"[1]": {"system": "HeLa (human cervical cancer-derived cell line)", "assay": "XTT assay, effect on cell survival (HeLa)", "format": "cell-based", "text": "(§1) The presence or the absence of the selective cytotoxic activity of the test substance (cellobiose) was examined on various established cell lines.\n(§2) Cell species: HeLa (human cervical cancer-derived cell line), HaCaT (human-derived immortalized keratinocyte) and Hep-G2 (human liver cancer-derived cell line)\n(§3) (Thawing and Passage Culture of Cells) • (1) HeLa, HaCaT, and Hep-G2 cells were thawed and then cultured in various specialized media. • (2) Cells were passaged 2 to 3 times. • (3) Cells that had recovered their growth capacity were used for the test. […]"}, "[2]": {"system": "Hep-G2 (human liver cancer-derived cell line)", "assay": "XTT assay, effect on cell survival (Hep-G2)", "format": "cell-based", "text": "as §1, §2, §3"}, "[3]": {"system": "HaCaT (human-derived immortalized keratinocyte)", "assay": "XTT assay, effect on cell survival (HaCaT)", "format": "cell-based", "text": "as §1, §2, §3"}, "[4]": {"system": "DMBA-induced breast cancer", "format": "in vivo", "settings": "for changes in body weight: vs control; for general conditions: deaths: 15 rats; for day from which development of tumors was confirmed: control: day 35", "method": "The antitumor effects of cellobiose were examined using the rat DMBA-induced breast cancer model. Specifically, 7-week-old female rats were grouped using body weight as an index, and then 7,12-dimethylbenz[a]anthracene (DMBA) (20 mg/mL/rat) was forcibly administered orally. Two doses of the test substance (4 and 40 mg/kg/day) were forcibly administered orally once a day from the day after grouping for 12 consecutive weeks.\nFifty-two 6-week-old female rats, Crl: CD (SD) (SPF), were purchased from Charles River Laboratories, Japan Inc. on Mar. 28, 2012 (Number of rats ordered: 50).\nAnimals, for which no abnormalities had been confirmed as a result of observation of general conditions during the quarantine and conditioning periods, were selected and then grouped by the stratified continuous randomization method using body weight as an index based on the following table of group composition (Table 1). The remaining animals were excluded from the test groups on the day of grouping and then disposed of after excessive euthanization with ether.\nDMBA was weighed to the required amount using an electronic even Sartorius Laboratory balance (SARTORIUS K.K.). The weighed DMBA was added to a beaker containing sesame oil, and then the solution was stirred using a mighty magnetic stirrer (Koike precision instruments) until the DMBA was completely dissolved. After dissolution, the solution was transferred to a volumetric graduated cylinder and then diluted to a concentration of 20 mg/mL. Upon preparation, countermeasures were taken against chemical hazards to avoid inhalation and adhesion to skin by wearing masks, safety eyeglasses, and gloves. Preparation was performed before use. Any carcinogen remaining after administration was treated as medical waste.\nThe carcinogen was administered to each animal after grouping. Specifically, the carcinogen was forcibly administered orally at a dosage of 1 mL/animal using sonde for oral administration (disposable sonde for oral administration, FUCHIGAMI) and glass syringes (disposable syringes, TERUMO Corporation). Administration was performed using masks, safety eyeglasses and gloves in order to avoid inhalation and adhesion to skin.\nNext, the test substance was weighed to the required amount using an electronic Sartorius Analytic balance (SARTORIUS K.K.), and then dissolved in the medium. The resultant was transferred to a volumetric graduated cylinder, and then diluted to concentrations of 0.8 mg/mL and 8.0 mg/mL. Preparation was performed before use. The solution of the test substance (to be administered) that had remained after administration was diluted with a large volume of tap water and then discarded.\nAdministration of the test substance began the day after grouping (designated as day 1). The test substance was forcibly administered orally once a day for 12 consecutive weeks.\nUpon administration, the test substance solution was forcibly administered orally at 5 mL/kg/day using sonde for oral administration (disposable sonde for oral administration, FUCHIGAMI) and glass syringes (disposable syringes, TERUMO Corporation) according to the table of group composition. The fluid volume administered was calculated based on the body weight measured on the day closest to the date of administration.\nAfter administration of the carcinogen, the general conditions were observed every day. Body weight was measured once a week.\nWhen the development of tumors was confirmed, the number of tumors developed in each animal was measured, and then the tumor volume estimate (mm^3) of each tumor was calculated once a week. In addition, the tumor volume estimate (mm^3) of each tumor was found by shaving the hair around the relevant tumor, measuring the tumor size (major axis “a” and minor axis “b” (mm)) using a vernier caliper, calculating according to the following formula, and then finding the sum of tumor volume estimates of the tumors.\nTumor volume estimate (mm^3) of each tumor=0.5 ×a×b^2 […]"}, "HeLa cells": {"system": "HeLa cells", "assay": "Confirmation of the performance of cell proliferation kit (XTT) with HeLa", "format": "cell-based, human", "settings": "500 μM, 3 hours", "method": "(Confirmation of the Performance of Cell Proliferation Kit (XTT)) • (1) HeLa cells were seeded in 16 wells of a 96-well plate at 1×10^4 cells/100 μL/well. • (2) Cells were cultured for 24 hours in a CO2 incubator. • (3) Dexamethasone was added at […] concentrations of 0 (control), 10, 100, and 500 μM (N=4). • (4) After addition, cells were cultured for 3 hours in the CO2 incubator. • (5) 50 μL of an XTT reagent was added. • (6) After addition, cells were cultured for 3 hours in the CO2 incubator. • (7) Absorbance was measured at 450 nm to 500 nm (ref.: 630 nm to 690 nm)."}, "[5]": {"settings": "any concentration (0.001-10 mg/mL), vs cells before addition"}}, "note": "Read-outs that look alike come from different tables or passages of the source."}
{"smiles": "O=C[C@H](O)[C@@H](O)[C@H](O[C@@H]1O[C@H](CO)[C@@H](O)[C@H](O)[C@H]1O)[C@H](O)CO", "note": "[cellobiose]", "values": [{"measurement": "change in survival rate compared to the control", "setting": "[1]; 10 mg/mL, 3 hours, XTT", "value": "almost no change in survival rate"}, {"measurement": "dead cells or cell morphological changes (photomicrographs)", "setting": "[1]; [5]", "value": "no influence of other factors such as an increase in dead cells or cell morphological changes"}, {"measurement": "dead cells or cell morphological changes (photomicrographs)", "setting": "[2]; Hep-G2, any concentration (0.001-10 mg/mL), vs cells before addition", "value": "no influence of other factors such as an increase in dead cells or cell morphological changes"}, {"measurement": "decrease in survival rate (maximum)", "setting": "[2]; Hep-G2, high concentration of test substance, 3 hours, XTT", "value": "~15", "unit": "%"}, {"measurement": "change in survival rate compared to the control", "setting": "[3]; 10 mg/mL, 3 hours, XTT", "value": "almost no change in survival rate"}, {"measurement": "dead cells or cell morphological changes (photomicrographs)", "setting": "[3]; [5]", "value": "no influence of other factors such as an increase in dead cells or cell morphological changes"}, {"measurement": "effect on development of breast cancer induced by DMBA (overall conclusion)", "setting": "[4]; 4 and 40 mg/kg/day oral, 12 weeks", "value": "suppresses the development of breast cancer that is induced by carcinogenic DMBA"}, {"measurement": "changes in body weight", "setting": "[4]; high-dose group 40 mg/kg/day oral once a day, 12 weeks", "value": "very similar changes to the control group"}, {"measurement": "general conditions: deaths", "setting": "[4]; high-dose group 40 mg/kg/day oral", "value": "one death was confirmed on day 76"}, {"measurement": "day from which development of tumors was confirmed", "setting": "[4]; high-dose group 40 mg/kg/day", "value": 49, "unit": "days"}, {"measurement": "number of animals having developed tumors", "setting": "[4]; high-dose group 40 mg/kg/day, day 49", "value": 2}, {"measurement": "number of animals having developed tumors", "setting": "[4]; high-dose group 40 mg/kg/day, day 84", "value": 11}, {"measurement": "tumor volume estimate vs control", "setting": "[4]; high-dose group 40 mg/kg/day, days 42 and 49", "value": "significantly lower than those of the control group"}, {"measurement": "number of animals having developed tumors", "setting": "[4]; high-dose group 40 mg/kg/day, until day 42", "value": "no development of tumors was confirmed until day 42"}, {"measurement": "changes in body weight", "setting": "[4]; low-dose group 4 mg/kg/day oral once a day, 12 weeks", "value": "very similar changes to the control group"}, {"measurement": "general conditions: deaths", "setting": "[4]; low-dose group 4 mg/kg/day oral", "value": "one death was confirmed on day 4"}, {"measurement": "wet weight of tumor vs control", "setting": "[4]; low-dose group 4 mg/kg/day, autopsy after 12 weeks", "value": "very similar to those of the control group"}, {"measurement": "day from which development of tumors was confirmed", "setting": "[4]; low-dose group 4 mg/kg/day", "value": 49, "unit": "days"}, {"measurement": "tumor volume estimate vs control", "setting": "[4]; low-dose group 4 mg/kg/day, day 42", "value": "significantly lower than those of the control group"}, {"measurement": "number of animals having developed tumors", "setting": "[4]; low-dose group 4 mg/kg/day, day 49", "value": 4}, {"measurement": "number of animals having developed tumors", "setting": "[4]; low-dose group 4 mg/kg/day, day 84", "value": 11}, {"measurement": "number of animals having developed tumors", "setting": "[4]; low-dose group 4 mg/kg/day, until day 42", "value": "no development of tumors was confirmed until day 42"}]}
{"smiles": "C[C@@H]1C[C@H]2[C@@H]3CCC4=CC(=O)C=C[C@]4(C)[C@@]3(F)[C@@H](O)C[C@]2(C)[C@@]1(O)C(=O)CO", "note": "[dexamethasone]", "values": [{"measurement": "decrease in survival rate", "setting": "HeLa cells", "value": "about 40%"}]}
